The source of these data is patent US20240109885A1, “2,3-DIHYDRO-1H-PYRROLO[3,2-B]PYRIDINE DERIVATIVE, PREPARATION METHOD THEREFOR, AND APPLICATION THEREOF” (Abbisko Therapeutics Co., Ltd, priority 2020, published 2024).

What all share (assay type): cell-based
Assay [1] addresses Ba/F3 EGFR-D770-N771ins_SVD (Homo sapiens, UniProt P00533, DUP768-770, cells depend on it). As to the kind of experiment: Cell proliferation assay (CellTiter-Glo), Ba/F3 EGFR-D770-N771ins_SVD cells. The note with it: 72 hrs, CTG assay, * = average of multiple measurements, read-out: Ba/F3 EGFR-D770-N771ins_SVD (nM), IC50 of cell proliferation. Summed up: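 Cells seeded overnight, then treated in triplicate with 9 concentrations (3.16-fold dilutions; 0.1% DMSO final) for 72 h at 37 °C, 5% CO2. Viability by CellTiter-Glo luminescence, normalised to cell and medium controls; IC50 (nM) from nonlinear sigmoidal fit.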
On the technique in general: Cellular ATP, detected with luciferase, serves as a proxy for viable cell number.

For assay [2], the target named is Ba/F3 EGFR-V769_D770insASV (Homo sapiens, UniProt P00533, DUP767-769, cells depend on it). The assay can be described thus: Cell proliferation assay (CellTiter-Glo), Ba/F3 EGFR-V769_D770insASV cells. The note with it: 72 hrs, CTG assay, * = average of multiple measurements, read-out: Ba/F3 EGFR-V769_D770insASV (nM), IC50 of cell proliferation. The method, then: (§1) I. Cell proliferation assay (i) Reagents and consumables • Fetal bovine serum (FBS) (GBICO, Cat #10099-141); • CellTiter-Glo® Luminescent Cell Viability Assay Kit (Promega, Cat #G7572); • Black transparent flat-bottomed 96-well plate (Corning®, Cat #3603).
(§2) • SpectraMax Multi-Label Microplate Detector MD, 2104-0010A; • CO2 incubator, Thermo Scientific 3100 Series; • Biosafety cabinet, Thermo Scientific, 1300 Series type A2; • Inverted microscope, Olympus, CKX41SF; • Siemens refrigerator KK25E76TI. (iii) Cell lines and culture conditions
(§3) (iv) Experimental procedures 1. Cell culture and seeding: • (1) Cells in the logarithmic growth phase were harvested, and counted using a platelet counter. Cell viability was detected by the trypan blue exclusion assay to ensure that the cell viability was above 90%. • (2) The cell concentration was adjusted to achieve the final density; and 90 μL of the cell suspension was added to the 96-well plate. • (3) The cells were incubated in the 96-well plate overnight at 37° C. in the presence of 5% CO2 with 95% humidity. 2. TO benchmark data: • (1) 10 μL of PBS was added to each well of the TO flat plate containing the cells. • (2) The CTG reagent was thawed, and the cell plate was equilibrated to room temperature for 30 min. • (3) An equal volume of CTG solution was added to each well. • (4) The cells were shaken for 5 min on an orbital shaker for lysis. • (5) The cell plate was left at room temperature for 20 min to stabilize luminescent signals. • (6) The values of TO luminescent signals were read. 3. Compound dilution and addition • (1) According to the compound information table, a corresponding volume of DMSO was added to the corresponding compound powder to prepare a 10 mM stock solution. • (2) Compound solutions diluted at 1000 fold and 3.16 fold were prepared. • (3) The compound solution diluted at 1000 fold was diluted at 100 fold with PBS, to prepare the compound solutions at 10 fold in 9 concentrations, with the maximum concentration of […]; and the compound solution was diluted at 3.16 fold. 10 μL of medicament solution was added to each well of the seeded 96-well plate. Three replicate wells were provided for each concentration of the compound, and the final concentration of DMSO was 0.1%. • (4) Cells were placed in the 96-well plate containing the medicament and subsequently cultured for 72 hrs at 37° C. in the presence of 5% CO2 with 95% humidity, and then, CTG assay was conducted. 4. Reading of luminescent signals • (1) The CTG reagent was thawed, and the cell plate was equilibrated to room temperature for 30 min. • (2) An equal volume of CTG solution was added to each well. • (3) The cells were shaken for 5 min on an orbital shaker for lysis.
(§4) (4) The cell plate was left at room temperature for 20 min to stabilize the luminescent signals. • (5) Luminescent values were read. Data processing
(§5) The data were analyzed using software GraphPad Prism 7.0, and fitted by the nonlinear S-curve regression to obtain a dose-effect curve, based on which the IC50 value (unit: nM) was calculated, with the specific test results shown in Table 1.
(§6) Cell viability (%)=(Lum test medicament-Lum culture medium control)/(Lum cell control-Lum culture medium control)×100%.

For a further assay, the system named is A431 (EGFR-WT). As to the kind of experiment: Cell proliferation assay (CellTiter-Glo), A431 cells. The note with it: Homo sapiens, A-431, 72 hrs, CTG assay, * = average of multiple measurements. How it is done: as §1, §2, §3, §4, §5, §6

Sequence of Ba/F3 EGFR-V769_D770insASV (P00533 with tags, fused parts or gaps DUP767-769): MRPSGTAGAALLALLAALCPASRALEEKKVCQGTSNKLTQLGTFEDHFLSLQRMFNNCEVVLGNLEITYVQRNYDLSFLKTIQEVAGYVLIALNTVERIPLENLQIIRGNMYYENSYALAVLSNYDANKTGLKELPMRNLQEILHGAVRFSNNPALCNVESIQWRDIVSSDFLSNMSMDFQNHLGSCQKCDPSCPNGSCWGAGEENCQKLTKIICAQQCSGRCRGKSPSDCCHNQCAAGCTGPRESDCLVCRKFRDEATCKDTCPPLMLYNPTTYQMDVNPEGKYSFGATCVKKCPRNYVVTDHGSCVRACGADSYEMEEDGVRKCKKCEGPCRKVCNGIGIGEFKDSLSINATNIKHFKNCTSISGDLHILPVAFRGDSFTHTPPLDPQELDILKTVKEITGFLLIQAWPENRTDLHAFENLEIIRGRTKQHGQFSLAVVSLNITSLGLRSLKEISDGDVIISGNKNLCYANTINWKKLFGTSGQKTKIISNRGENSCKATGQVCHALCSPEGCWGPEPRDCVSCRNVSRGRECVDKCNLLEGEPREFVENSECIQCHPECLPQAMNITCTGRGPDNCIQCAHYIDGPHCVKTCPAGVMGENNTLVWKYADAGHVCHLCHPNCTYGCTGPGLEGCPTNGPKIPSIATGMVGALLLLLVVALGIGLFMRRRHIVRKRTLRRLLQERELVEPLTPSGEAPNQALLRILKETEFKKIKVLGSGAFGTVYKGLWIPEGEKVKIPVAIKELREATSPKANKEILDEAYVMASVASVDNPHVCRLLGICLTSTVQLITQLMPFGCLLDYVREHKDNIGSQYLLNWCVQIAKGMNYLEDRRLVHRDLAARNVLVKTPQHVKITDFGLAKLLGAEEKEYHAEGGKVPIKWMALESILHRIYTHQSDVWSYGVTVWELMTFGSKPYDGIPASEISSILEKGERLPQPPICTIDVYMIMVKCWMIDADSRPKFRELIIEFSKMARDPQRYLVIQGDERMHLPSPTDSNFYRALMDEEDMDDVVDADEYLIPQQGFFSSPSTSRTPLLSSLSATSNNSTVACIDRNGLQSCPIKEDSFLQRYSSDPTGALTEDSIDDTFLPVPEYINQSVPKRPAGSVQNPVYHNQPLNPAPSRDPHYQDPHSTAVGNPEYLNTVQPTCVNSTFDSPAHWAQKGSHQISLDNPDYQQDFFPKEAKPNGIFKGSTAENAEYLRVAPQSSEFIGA
Sequence of Ba/F3 EGFR-D770-N771ins_SVD (P00533 with tags, fused parts or gaps DUP768-770): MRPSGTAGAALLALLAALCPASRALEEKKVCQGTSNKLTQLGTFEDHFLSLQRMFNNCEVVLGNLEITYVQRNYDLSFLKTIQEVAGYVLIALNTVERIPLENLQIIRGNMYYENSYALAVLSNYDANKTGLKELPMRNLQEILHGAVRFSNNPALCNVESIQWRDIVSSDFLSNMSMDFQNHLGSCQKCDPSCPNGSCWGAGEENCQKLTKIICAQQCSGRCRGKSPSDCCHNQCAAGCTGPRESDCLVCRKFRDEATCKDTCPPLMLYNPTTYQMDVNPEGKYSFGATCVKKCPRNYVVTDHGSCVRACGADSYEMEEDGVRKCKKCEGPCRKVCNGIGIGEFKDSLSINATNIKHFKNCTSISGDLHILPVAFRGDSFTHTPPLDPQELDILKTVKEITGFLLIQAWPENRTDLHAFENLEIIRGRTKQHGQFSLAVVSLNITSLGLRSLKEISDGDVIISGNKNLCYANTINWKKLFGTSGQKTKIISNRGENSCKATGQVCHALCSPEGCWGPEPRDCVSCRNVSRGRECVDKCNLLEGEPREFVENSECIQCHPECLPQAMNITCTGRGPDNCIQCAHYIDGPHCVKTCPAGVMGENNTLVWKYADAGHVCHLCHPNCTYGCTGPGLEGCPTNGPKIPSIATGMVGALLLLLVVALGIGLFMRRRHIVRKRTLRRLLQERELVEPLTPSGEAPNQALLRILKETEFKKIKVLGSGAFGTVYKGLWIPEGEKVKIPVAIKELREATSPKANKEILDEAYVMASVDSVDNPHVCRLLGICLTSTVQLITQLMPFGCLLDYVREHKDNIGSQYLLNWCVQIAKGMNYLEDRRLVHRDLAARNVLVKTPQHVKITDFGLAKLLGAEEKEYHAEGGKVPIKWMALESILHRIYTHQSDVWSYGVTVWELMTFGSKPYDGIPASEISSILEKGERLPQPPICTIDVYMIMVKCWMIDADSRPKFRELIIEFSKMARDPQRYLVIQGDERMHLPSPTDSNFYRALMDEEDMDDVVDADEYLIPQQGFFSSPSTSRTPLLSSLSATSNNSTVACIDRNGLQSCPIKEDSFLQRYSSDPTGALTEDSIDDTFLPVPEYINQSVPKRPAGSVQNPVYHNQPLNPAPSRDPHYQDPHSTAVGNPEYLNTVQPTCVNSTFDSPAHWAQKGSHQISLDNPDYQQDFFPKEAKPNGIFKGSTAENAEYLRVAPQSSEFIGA

By IC50 is commonly meant the midpoint of a concentration-inhibition curve. The low end stands for inhibition by little substance, the high end for a need for much substance. `C=CC(=O)Nc1cc(Nc2nccc(N3CC4(CCCCC4)c4nc(C)ccc43)n2)c(OCC(F)(F)F)nc1N(C)CCN(C)C` [Example 42, N-(2-((2-(dimethylamino)ethyl) (methyl)amino)-5-((4-(5′-methyl-spiro[cyclohexane-1,3′-pyrrolo[3,2-b]pyridin]-1′(2′H)-yl)pyrimidin-2-yl)amino)-6-(2,2,2-trifluoroethoxy)pyridin-3-yl)acrylamide]: the GI50 in assay [1] amounted to 11.6 nM; in assay [2], 23.5 nM. For the same compound, in the assay with A431 (EGFR-WT), the midpoint of inhibition, the IC50, lay at 488 nM.
In the case of `C=CC(=O)Nc1cc(Nc2nccc(N3CC(C)(C)c4nc(C)ccc43)n2)c(OC)cc1N(C)CCN(C)C` [Example 5, N-(2-((2-(dimethylamino)ethyl) (methyl)amino)-4-methoxy-5-((4-(3,3,5-trimethyl-2,3-dihydro-1H-pyrrolo[3,2-b]pyridin-1-yl)pyrimidin-2-yl)amino)phenyl)acrylamide], the GI50 in assay [1] turned out to be 26.6 nM; in assay [2] it was 31.4 nM. This compound also gave an IC50 with A431 (EGFR-WT) of 411 nM.
`C=CC(=O)Nc1cc(Nc2cc(N3CC(C)(C)c4nc(C)ccc43)ccn2)c(OC)nc1N(C)CCN(C)C` [Example 15, N-(2-((2-(dimethylamino)ethyl) (methyl)amino)-6-methoxy-5-((4-(3,3,5-trimethyl-2,3-dihydro-1H-pyrrolo[3,2-b]pyridin-1-yl)pyridin-2-yl)amino)pyridin-3-yl)acrylamide]: the GI50 amounted to 37 nM in assay [1] and 74.8 nM in assay [2]. Moreover, in the assay with A431 (EGFR-WT), half-maximal inhibition (IC50) was put at 815 nM.
The matching figures for `C=CC(=O)Nc1cc(Nc2cc(N3CC(C)(C)c4nc(C)ccc43)ccn2)c(OC)cc1N(C)CCN(C)C` [Example 2, N-(2-((2-(dimethylamino)ethyl) (methyl)amino)-4-methoxy-5-((4-(3,3,5-trimethyl-2,3-dihydro-1H-pyrrolo[3,2-b]pyridin-1-yl)pyridin-2-yl)amino)phenyl)acrylamide]: 60.4 nM, 97.9 nM and 1070 nM.
As for `C=CC(=O)Nc1cc(Nc2nccc(N3CC4(CCC4)c4nc(C)ccc43)n2)c(OC)nc1N(C)CCN(C)C` [Example 53, N-(2-((2-(dimethylamino)ethyl) (methyl)amino)-6-methoxy-5-((4-(5′-methylspiro[cyclobutane-1,3′-pyrrolo[3,2-b]pyridin]-1′(2′H)-yl)pyrimidin-2-yl)amino)pyridin-3-yl) acrylamide], the GI50 in assay [1] was 14.8 nM; in assay [2], 26.3 nM. Also, it took 96.9 nM to reach half-maximal inhibition with A431 (EGFR-WT) (IC50).
With `C=CC(=O)Nc1cc(Nc2nccc(N3CC4(CCC4)c4nc(C)ccc43)n2)c(OC)cc1N(C)CCN(C)C` [Example 52, N-(2-((2-(dimethylamino)ethyl) (methyl)amino)-4-methoxy-5-((4-(5′-methylspiro[cyclobutane-1,3′-pyrrolo[3,2-b]pyridin]-1′(2′H)-yl)pyrimidin-2-yl)amino)phenyl) acrylamide], the GI50 in assay [1] worked out at 32.9 nM; in assay [2] it was 54.2 nM. For the same compound, 189 nM corresponded to half-maximal inhibition in the assay on A431 (EGFR-WT) (IC50).
Take `C=CC(=O)Nc1cc(Nc2nccc(N3CC(C)(C)c4nc(-c5cnn(C)c5)ccc43)n2)c(OC)cc1N(C)CCN(C)C` [Example 50, N-(5-((4-(3,3-dimethyl-5-(1-methyl-1H-pyrazol-4-yl)-2,3-dihydro-1H-pyrrolo[3,2-b]pyridin-1-yl)pyrimidin-2-yl)amino)-2-((2-(dimethylamino)ethyl)(methyl)amino)-4-methoxyphenyl)acrylamide]: the GI50 in assay [1] amounted to 14.6 nM; in assay [2], 32.1 nM. The same compound gave an IC50 with A431 (EGFR-WT) of 82.4 nM.
Take `C#Cc1ccc2c(n1)C(C)(C)CN2c1ccnc(Nc2cc(NC(=O)C=C)c(N(C)CCN(C)C)cc2OC(F)F)n1` [Example 68, N-(4-(difluoromethoxy)-2-((2-(dimethylamino)ethyl)(methyl)ami-no)-5-((4-(5-ethynyl-3,3-dimeth-yl-2,3-dihydro-1H-pyrrolo[3,2-b]pyridin-1-yl)pyrimidin-2-yl)amino)phenyl)acrylamide]: the values for the GI50 in assay [1] and in assay [2] were 6.5 nM and 17.1 nM, respectively. Also, in the assay on A431 (EGFR-WT), the IC50 worked out at 673 nM.
In the case of `C=CC(=O)Nc1cc(Nc2nccc(N3CC(C)(C)c4ncccc43)n2)c(OC(F)F)cc1N(C)CCN(C)C` [Example 45, N-(4-(difluoromethoxy)-5-((4-(3,3-dimethyl-2,3-dihydro-1H-pyrrolo [3,2-b]pyridin-1-yl)pyrimidin-2-yl)amino)-2-((2-(dimethylamino)ethyl)(methyl)amino)phenyl)acrylamide], the GI50 in assay [1] is 35.8 nM; in assay [2], 11.7 nM. Besides, the IC50 in the assay on A431 (EGFR-WT) was found to be 1070 nM.
As for `C=CC(=O)Nc1cc(Nc2ncnc(N3CC(C)(C)c4nc(Cl)ccc43)n2)c(OC)cc1N(C)CCN(C)C` [Example 22, N-(5-((4-(5-chloro-3,3-dimethyl-2,3-dihydro-1H-pyrrolo[3,2-b]pyridin-1-yl)-1,3,5-triazin-2-yl)amino)-2-((2-(dimethylamino)ethyl) (methyl)amino)-4-methoxyphenyl) acrylamide], the figures for the GI50 in assay [1] and in assay [2] were 15.6 nM and 58.2 nM, respectively. This compound also showed an IC50 in the assay on A431 (EGFR-WT) of 121 nM.
The matching figures for `C=CC(=O)Nc1cc(Nc2cc(N3CC(C)(C)c4nc(C)ccc43)ncn2)c(OC)cc1N(C)CCN(C)C` [Example 11, N-(2-((2-(dimethylamino)ethyl) (methyl)amino)-4-methoxy-5-((6-(3,3,5-trimethyl-2,3-dihydro-1H-pyrrolo[3,2-b]pyridin-1-yl)pyrimidin-4-yl)amino)phenyl)acrylamide]: 40.4 nM, 73.9 nM and 293 nM.
The corresponding values for `C=CC(=O)Nc1cc(Nc2nccc(N3CC4(CCCC4)c4nc(C)ccc43)n2)c(OC(F)F)cc1N(C)CCN(C)C` [Example 39, N-(4-(difluoromethoxy)-2-((2-(dimethylamino)ethyl)(methyl)amino)-5-((4-(5′-methylspiro[cyclo-pentane-1,3′-pyrrolo[3,2-b]pyridin]-1′(2′H)-yl)pyrimidin-2-yl)amino)phenyl)acrylamide] are 24.9 nM, 35.8 nM and 396 nM.
`C=CC(=O)Nc1cc(Nc2nccc(N3CC4(CCC4)c4nc(C)ccc43)n2)c(OC(F)F)cc1N(C)CCN(C)C` [Example 64, N-(4-(difluoromethoxy)-2-((2-(dimethylamino)ethyl)(methyl)amino)-5-((4-(5′-methylspiro[cyclo-butane-1,3′-pyrrolo[3,2-b]pyridin]-1′(2′H)-yl)pyrimidin-2-yl)amino)phenyl)acrylamide]: the GI50 came out at 17.1 nM in assay [1] and 31.9 nM in assay [2]. In the assay with A431 (EGFR-WT), this compound gave an IC50 of 494 nM.
On to `C=CC(=O)Nc1cc(Nc2cc(N3CC(C)(C)c4ncccc43)ncn2)c(OC)cc1N1CCC[C@@H]1CN(C)C` [Example 12, (R)-N-(5-((6-(3,3-dimethyl-2,3-dihydro-1H-pyrrolo[3,2-b]pyridin-1-yl)pyrimidin-4-yl)amino)-2-(2-((dimethylamino)methyl)pyrrolidin-1-yl)-4-methoxyphenyl)acrylamide], for which the values for the GI50 in assay [1] and in assay [2] were 35.3 nM and 70.8 nM, respectively. The compound further came in with an IC50 in the assay on A431 (EGFR-WT) of 89.9 nM.
